PubChem BioAssay (NCI)
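48-hour exposure; five concentrations; linearly interpolated endpoints. GI50 = concentration required for 50% inhibition of growth. TGI is the concentration that stops growth completely.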

Columns and labels:
Assay in all cases: DTP human tumour cell line panel, 48 h
[1] = test system: MALME-3M melanoma
[2] = test system: NCI-H522 lung
[3] = test system: U251 CNS
[4] = test system: SK-OV-3 ovarian
[5] = test system: SNB-19 CNS
[6] = test system: MDA-MB-435
[7] = test system: SK-MEL-2 melanoma
[8] = test system: SNB-75 CNS
[9] = test system: A549 NSCLC
[10] = test system: UACC-257 melanoma
[11] = test system: UACC-62 melanoma
[12] = test system: HS 578T breast
[13] = test system: HOP-92 NSCLC
[14] = test system: EKVX NSCLC
[15] = test system: NCI-H226 lung
[16] = test system: SW-620 colon
[17] = test system: CAKI-1 renal
[18] = test system: MCF7 breast
[19] = test system: RPMI-8226 leukemia
[20] = test system: ACHN renal
[21] = test system: OVCAR-5 ovarian
[22] = test system: HCT-15 colon
[23] = test system: SF-268 CNS
[24] = test system: NCI-H460 lung
[25] = test system: OVCAR-4 ovarian
[26] = test system: KM12 colon
[27] = test system: RXF 393 renal
[28] = test system: LOX IMVI melanoma
[29] = test system: OVCAR-8 ovarian
[30] = test system: SN12C renal
[31] = test system: SF-539 CNS
[32] = test system: T-47D breast
[33] = test system: DU-145 prostate
[34] = test system: 786-0 renal
[35] = test system: HT29 colon
[36] = test system: SF-295 CNS
[37] = test system: SK-MEL-28 melanoma
[38] = test system: HL-60(TB) leukemia
[39] = test system: HOP-62 NSCLC
[40] = test system: PC-3 prostate
[41] = test system: SR leukemia
[42] = test system: OVCAR-3 ovarian
[43] = test system: HCT-116 colon
[44] = test system: A498 renal
[45] = test system: M14 melanoma
[46] = test system: HCC-2998 colon
[47] = test system: SK-MEL-5 melanoma
[48] = test system: IGROV1 ovarian
[49] = test system: COLO 205 colon
[50] = test system: K-562 leukemia
[51] = test system: TK-10 renal
[52] = test system: MOLT-4 leukemia
[53] = test system: CCRF-CEM leukemia
[54] = test system: NCI/ADR-RES ovarian
[55] = test system: MDA-MB-231 breast
[56] = test system: UO-31 renal
[57] = test system: BT-549 breast

CCOP(=O)(OCC)OC[C@]12CC[C@@H](C)[C@H](C)C1C1=CC[C@@H]3[C@@]4(C)CCCNC(C)(C)[C@@H]4CC[C@@]3(C)[C@]1(C)CC2 (some centres undefined)
GI50 [1]: 1650 nM | TGI [1]: 3120 nM | GI50 [2]: 1840 nM | TGI [2]: 3910 nM | GI50 [3]: 1650 nM | TGI [3]: 3350 nM | GI50 [4]: 3270 nM | TGI [4]: 10600 nM | GI50 [5]: 1690 nM | TGI [5]: 3240 nM | GI50 [6]: 1760 nM | TGI [6]: 3310 nM | GI50 [7]: 4800 nM | TGI [7]: 20700 nM | GI50 [8]: 2830 nM | TGI [8]: 15600 nM | GI50 [9]: 1780 nM | TGI [9]: 3540 nM | GI50 [10]: 2130 nM | TGI [10]: 4950 nM | GI50 [11]: 1550 nM | TGI [11]: 3110 nM | GI50 [12]: 2680 nM | TGI [12]: 8090 nM | GI50 [13]: 1510 nM | TGI [13]: 4510 nM | GI50 [14]: 1530 nM | TGI [14]: 2960 nM | GI50 [15]: 4980 nM | TGI [15]: 23300 nM | GI50 [16]: 1820 nM | TGI [16]: 3450 nM | GI50 [17]: 1440 nM | TGI [17]: 2790 nM | GI50 [18]: 1590 nM | TGI [18]: 3170 nM | GI50 [19]: 2200 nM | TGI [19]: 5700 nM | GI50 [20]: 1720 nM | TGI [20]: 3110 nM | GI50 [21]: 1680 nM | TGI [21]: 3090 nM | GI50 [22]: 1680 nM | TGI [22]: 3170 nM | GI50 [23]: 2510 nM | TGI [23]: 9240 nM | GI50 [24]: 1830 nM | TGI [24]: 3460 nM | GI50 [25]: 2270 nM | TGI [25]: 6130 nM | GI50 [26]: 1910 nM | TGI [26]: 3570 nM | GI50 [27]: 1310 nM | TGI [27]: 2690 nM | GI50 [28]: 1210 nM | TGI [28]: 2560 nM | GI50 [29]: 1900 nM | TGI [29]: 3960 nM | GI50 [30]: 1530 nM | TGI [30]: 2940 nM | GI50 [31]: 1630 nM | TGI [31]: 3040 nM | GI50 [32]: 1600 nM | TGI [32]: 3780 nM | GI50 [33]: 1940 nM | TGI [33]: 3710 nM | GI50 [34]: 1510 nM | TGI [34]: 2980 nM | GI50 [35]: 1880 nM | TGI [35]: 4090 nM | GI50 [36]: 1780 nM | TGI [36]: 3340 nM | GI50 [37]: 1690 nM | TGI [37]: 3110 nM | GI50 [38]: 1670 nM | TGI [38]: 3470 nM | GI50 [39]: 1950 nM | TGI [39]: 3930 nM | GI50 [40]: 1570 nM | TGI [40]: 3150 nM | GI50 [41]: 1410 nM | TGI [41]: 3640 nM | GI50 [42]: 1720 nM | TGI [42]: 3330 nM | GI50 [43]: 1690 nM | TGI [43]: 3210 nM | GI50 [44]: 5080 nM | TGI [44]: 21800 nM | GI50 [45]: 1740 nM | TGI [45]: 3320 nM | GI50 [46]: 1850 nM | TGI [46]: 3420 nM | GI50 [47]: 1690 nM | TGI [47]: 3110 nM | GI50 [48]: 1570 nM | TGI [48]: 3000 nM | GI50 [49]: 2060 nM | TGI [49]: 4230 nM | GI50 [50]: 1570 nM | TGI [50]: 3320 nM | GI50 [51]: 3490 nM | TGI [51]: 12800 nM | GI50 [52]: 1520 nM | TGI [52]: 3510 nM | GI50 [53]: 2530 nM | TGI [53]: 8140 nM | GI50 [54]: 1790 nM | TGI [54]: 3390 nM | GI50 [55]: 1700 nM | TGI [55]: 3190 nM | GI50 [56]: 1440 nM | TGI [56]: 2930 nM | GI50 [57]: 4490 nM | TGI [57]: 17600 nM
